From patent publication US20030144352A1, “Antimuscarinic aerosol” (priority 2001, published 2003)

How the values were obtained:
[1] = human serum; Nilvebrant et al., Life Sciences 60 (1997); cited from earlier work
[2] = Plasma concentration of tolterodine after aerosol administration (inhalation) in mice; format: in vivo
Experimental: Female BALB/C mice, weight range 19-22 g, were obtained from Charles River Laboratories (Kingston, N.C.). They received food and water ad libitum. All procedures in these studies were in compliance with the Animal Welfare Act Regulation, 9CFR Parts 1 and 2, Publication (NIH) 85-23, 1985.
This nebulizer generates a mean aerosol particle size of 1.3 microns at a rate of approximately 0.25 ml/minute.
Blood samples were taken via cardiac puncture under isoflurane anesthesia at 5, 15, 30, 60, 120, and 240 minutes after in treatment and at 2.5, 5, 15, 30, 60, and 120 minutes after aerosol drug treatment.
The samples were collected in tubes containing EDTA and centrifuged at 12000×g for four minutes. Plasma was removed and stored at −70° C. until assay.
Plasma samples were extracted via a liquid/liquid extraction technique. […] Chromatographically, the analyte and internal standard were resolved on a Zorbax ACE Phenyl column (2.1×50mm) using a gradient elution. The total analysis time was 4 minutes with a limit of quantization of 100 pg/mL.
Female BALB/c mice, weight range 19-22 g, were obtained from Charles River Laboratories (Kingston, N.C.). They received food and water ad libitum. All procedures in these studies were in compliance with the Animal Welfare Act Regulation, 9CFR Parts 1 and 2, Publication (NIH) 85-23, 1985.
The duration of aerosol treatment was five minutes. Blood samples were collected via cardiac puncture at 2.5, 5, 15, 30, 60, and 120 minutes following the end of the drug nebulization period.
The samples from were collected in tubes containing EDTA and centrifuged at 12000×g for four minutes. Plasma was removed and stored at −70° C. until assay.

| Compound | Fraction unbound [1] [%] | Plasma levels ([2]; female BALB/c mice, inhalation of nebulized 0.1 mg/mL solution for five minutes, 2.5-120 minutes after nebulization) | Rise in tolterodine plasma concentration ([2]; mice, aerosol administration (FIGS. 1 and 2)) | Absorption into the circulation ([2]; mice, inhalation of nebulized solutions at 0.1, 0.5 or 1.0 mg/mL) |
| --- | --- | --- | --- | --- |
| CC(C)N(CC[C@H](c1ccccc1)c1cc(CO)ccc1O)C(C)C [5-HM, 2-[(1R)-3-(diisopropylamino)-1-phenylpropyl]-4-(hydroxymethyl)phenol] | 36 | – | – | – |
| Cc1ccc(O)c([C@H](CCN(C(C)C)C(C)C)c2ccccc2)c1.O=C(O)C(O)C(O)C(=O)O [tolterodine L-tartrate, (R)-N,N-diisopropyl-3-(2-hydroxy-5-methylphenyl)-3-phenylpropanamine L-tartrate] | – | at or below-detection limits | – | – |
| Cc1ccc(O)c([C@H](CCN(C(C)C)C(C)C)c2ccccc2)c1 [tolterodine, 2-[(1R)-3-(diisopropylamino)-1-phenylpropyl]-4-methylphenol] | 3.7 | – | within a few minutes a distinct and instant rise | rapidly absorbed into the circulation |
